For assay [1], the system named is phosphorylated GSK3 (Ser9). As to the kind of experiment: Cellular pGSK3 assay (phospho-GSK3 ELISA). It is filed as cell-based. To be noted: Homo sapiens, MCF7 cells, compound incubated 48h. The protocol:
In order to study the cellular activity of the compounds according to the present invention, an ELISA-based assay has been established for the phosphorylated protein glycogen synthetase kinase 3 (GSK3). The assay is based on a solid phase sandwich ELISA that detects endogenous levels of phosphorylated GSK3 using a phospho-GSK3 (Ser9) specific antibody (BioSource International, Inc.; Catalog #KHO0461). After incubation with cell lysates, the coated antibody captures the phosphorylated GSK3 protein. Following extensive washing, GSK3 polyclonal antibody is added to detect the captured phospho-GSK3 protein. Secondary antibody (anti-rabbit IgG-HRP) is then used to recognize the bound detection antibody. After the second incubation and washing to remove all the excess anti-rabbit IgG-HRP, a substrate solution is added, which is acted upon by the bound enzyme to produce color. The intensity of this colored product is directly proportional to the concentration of GSK-3β [pS9] present in the original specimen. MCF7 cells (ATCC HTB-22) were seeded into 96 well fate bottom plates at a density of 10000 cells/well. After 24 h 1 µl each of the compound dilutions (test compounds were dissolved as 10 mM solutions in dimethylsulfoxide (DMSO) and subsequently diluted) were added into each well of the 96 well plates and incubated for 48h at 37°C in a humidified athmosphere containing 5% CO2. Cells were harvested and lysed in cell extraction buffer (10 mM Tris, pH 7.4, 100 mM NaCl, 1 mM EDTA, 1 mM EGTA, 1 mM NaF, 20 mM Na4P2O7, 2 mM Na3VO4, 1% Triton X-100, 10vol% glycerol, 0.1vol% SDS, 0.5vol% deoxycholate, 1 mM phenylmethylsulfonylfluorid (PMSF)). The lysate were centrifuged for 10 min. at 4°C and the supernatant were transferred to a new tube. 50 µl of sample diluent (standard diluent buffer, Biosource) were added and 100 µl of cell lysate transferred into the tube and vortexed. 100 µl of each diluted cell lysate were added to the appropriate ELISA well plate and incubated for 3h at room temperature. The plates were washed 4 times with 1x wash buffer (Biosource). 50 µl of detection antibody (GSK3 (Ser9) detection antibody; BioSource) were added to each well and incubated for 30 min. at room temperature. The washing procedure was repeated between each step. 100µl of HRP-linked secondary antibody (anti-mouse IgG HRP-linked antibody) were added to each well and incubated for 30 min. at room temperature. 100µl of TMB substrate (0.05vol% 3,3',5,5' tetramethylbenzidine, 0.1vol% hydrogen peroxide, complex polypeptides in a buffered solution; Biosource) were added to each well and incubated for 30 min. at room temperature. Finally 100 µl of Stop solution (0.05vol% α and β unsaturated carbonyl compound) were added to each well and the plate were shaked gently for a few seconds. The absorbance was measured at λ = 450 nm (Wallac Victor2; Perkin Elmer, USA) within 30 min. after adding the stop solution. The analysis of the data was performed using a statistical program (Excel; Microsoft, USA) and the IC50 of pGSK3 inhibition was determined.
In general terms: In an ELISA, binding on a coated surface is turned into a signal by an enzyme label.

For the next assay, the system named is OvCAR3 cells. As to the kind of experiment: Cellular proliferation / Cytotoxicity assay (Alamar Blue). To be noted: Homo sapiens, OVCAR-3, 48h incubation, Alamar Blue (Resazurin) cell viability, read-out: Anti-proliferative / Cytotoxic activity (OvCAR3 cells). It counts as cell-based. The protocol: The anti-proliferative activity of the compounds as described herein, is evaluated using the OvCAR3, HCT116 and A549 cell lines and the Alamar Blue (Resazurin) cell viability assay (O'Brien et al. Eur J Biochem 267, 5421-5426, 2000). Resazurin is reduced to the fluorescent resorufin by cellular dehydrogenase activity, correlating with viable, proliferating cells. Test compounds are dissolved as 10 mM solutions in DMSO and subsequently diluted. Cells like HCT116 or A549 cells were seeded into 96 well flat bottom plates at a density of 10000 cells/well (OvCAR3 cells), 1000 cells/well (HCT116 cells) or 2000 cells/well (A549 cells) in a volume of 200 µl/well. 24 hours after seeding, 1 µl each of the compound dilutions are added into each well of the 96 well plates. Each compound dilution is tested as at least as duplicates. Wells containing untreated control cells were filled with 200 µl DMEM (Dulbecco's Modified Eagle Medium) containing 0.5vol% v:v DMSO. The cells are then incubated with the substances for 48h at 37°C in a humidified atmosphere containing 5vol% CO2. To determine the viability of the cells, 20 µl of a Resazurin solution (90mg / l) are added. After 4h incubation at 37°C, the fluorescence is measured by extinction at ? = 544 nm and an emission of ? = 590 nm (Wallac Victor2; Perkin Elmer, USA). For the calculation of the cell viability, the emission value from untreated cells is set as 100% viability and the fluorescence intensity of treated cells are set in relation to the values of untreated cells. Viabilities are expressed as % values. The corresponding IC50 values of the compounds for cytotoxic activity are determined from the concentration-effect curves by means of non-linear regression. The analysis of the data is performed using a biostatistical program (GraphPad Prism, USA). Representative IC50 values for anti-proliferative / cytotoxic potency determined in the aforementioned assay follow from the following table, in which the numbers of the compound correspond to the numbers of the examples.

Turning to `CCc1cnc2nc(-c3ccc(CN4CCC(c5n[nH]c(-c6ccccn6)n5)CC4)cc3)c(-c3ccccc3)cn12` [Example 22, 3-ethyl-6-phenyl-7-(4-{[4-(5-pyridin-2-yl-1,2,4-triazol-3-yl)piperidin-1-yl]methyl}phenyl)imidazo[1,2-a]pyrimidine], the IC50 is 1000 to 10000 nM in assay [1] and under 1000 nM in the assay with OvCAR3 cells.

For `c1ccc(-c2cn3ncnc3nc2-c2ccc(CN3CCC(c4n[nH]c(-c5ccccn5)n4)CC3)cc2)cc1` [Example 2, 6-phenyl-5-(4-([4-(5-pyridin-2-yl-1,2,4-triazol-3-yl)piperidin-1-yl]methyl}phenyl)[1,2,4]triazolo[1,5-a]pyrimidine], the IC50 in assay [1] was 1000 to 10000 nM; in the assay on OvCAR3 cells, over 1000 nM.

As to `c1ccc(-c2cn3nc(C4CCC4)nc3nc2-c2ccc(CN3CCC(c4n[nH]c(-c5ccccn5)n4)CC3)cc2)cc1` [Example 7, 2-cyclobutyl-6-phenyl-5-(4-{[4-(5-pyridin-2-yl-1,2,4-triazol-3-yl)piperidin-1-yl]methyl}phenyl)[1,2,4]triazolo[1,5-a]pyrimidine], the IC50 (in assay [1]; with OvCAR3 cells) was under 1000 nM throughout.

`c1ccc(-c2cn3ccnc3nc2-c2ccc(CN3CCC(c4n[nH]c(-c5cnccn5)n4)CC3)cc2)cc1` [Example 21, 6-phenyl-7-(4-{[4-(5-pyrazin-2-yl-1,2,4-triazol-3-yl)piperidin-1-yl]methyl}phenyl)imidazo[1,2-a]pyrimidine]: the IC50 in assay [1] was 1000 to 10000 nM; in the assay with OvCAR3 cells it was over 1000 nM.

In the case of `N#Cc1cnc2nc(-c3ccc(CN4CCC(c5n[nH]c(-c6ccccn6)n5)CC4)cc3)c(-c3ccccc3)cn12` [Example 8, 6-phenyl-7-(4-{[4-(5-pyridin-2-yl-1,2,4-triazol-3-yl)piperidin-1-yl]methyl}phenyl)imidazo[1,2-a]pyrimidine-3-carbonitrile], the IC50 in assay [1] was 1000 to 10000 nM; in the assay on OvCAR3 cells, over 1000 nM.

`c1ccc(-c2cn3ccnc3nc2-c2ccc(CN3CCC(n4cnc(-c5ccccn5)c4)CC3)cc2)cc1` [Example 20, 6-phenyl-7-(4-{[4-(4-pyridin-2-yl-imidazol-1-yl)piperidin-1-yl]methyl}phenyl)imidazo[1,2-a]pyrimidine]: the IC50 in assay [1] is 1000 to 10000 nM; in the assay on OvCAR3 cells, over 1000 nM.

Take `Cc1nc2nc(-c3ccc(CN4CCC(c5n[nH]c(-c6ccccn6)n5)CC4)cc3)c(-c3ccccc3)cn2n1` [Example 3, 2-methyl-6-phenyl-5-(4-{[4-(5-pyridin-2-yl-1,2,4-triazol-3-yl)piperidin-1-yl]methyl}phenyl)[1,2,4]triazolo[1,5-a]pyrimidine]: the IC50 is 1000 to 10000 nM in assay [1] and under 1000 nM in the assay on OvCAR3 cells.

With `c1ccc(-c2cn3ccnc3nc2-c2ccc(CN3CCC(c4nc(-c5ccccn5)n[nH]4)CC3)cc2)cc1` [Example 1, 6-phenyl-7-(4-{[4-(3-pyridin-2-yl-1,2,4-triazol-5-yl)piperidin-1-yl]methyl}phenyl)imidazo[1,2-a]pyrimidine], the results for the IC50 (in assay [1]; in the assay on OvCAR3 cells) were under 1000 nM and over 1000 nM, respectively.

Turning to `c1ccc(-c2cn3nccc3nc2-c2ccc(CN3CCC(c4n[nH]c(-c5ccccn5)n4)CC3)cc2)cc1` [Example 19, 6-phenyl-5-(4-{[4-(5-pyridin-2-yl-1,2,4-triazol-3-yl)piperidin-1-yl]methyl}phenyl)pyrazolo[1,5-a]pyrimidine], the IC50 in assay [1] is 1000 to 10000 nM; with OvCAR3 cells, under 1000 nM.

In the case of `Fc1cnc2nc(-c3ccc(CN4CCC(c5n[nH]c(-c6ccccn6)n5)CC4)cc3)c(-c3ccccc3)cn12` [Example 9, 3-fluoro-6-phenyl-7-(4-{[4-(5-pyridin-2-yl-1H-1,2,4-triazol-3-yl)piperidin-1-yl]methyl}phenyl)imidazo[1,2-a]pyrimidine], the IC50 is 1000 to 10000 nM in assay [1] and under 1000 nM in the assay with OvCAR3 cells.

Take `c1ccc(-c2cn3ccnc3nc2-c2ccc(CN3CCC(c4n[nH]c(-c5ncccn5)n4)CC3)cc2)cc1` [Example 18, 6-phenyl-7-(4-{[4-(5-pyrimidin-2-yl-1,2,4-triazol-3-yl)piperidin-1-yl]methyl}phenyl)imidazo[1,2-a]pyrimidine]: the IC50 in assay [1] was 1000 to 10000 nM; in the assay with OvCAR3 cells, over 1000 nM.

`c1ccc(-c2cn3ccnc3nc2-c2ccc(CN3CCC(c4n[nH]c(-c5ccncc5)n4)CC3)cc2)cc1` [Example 6, 6-phenyl-7-(4-{[4-(5-pyridin-4-yl-1,2,4-triazol-3-yl)piperidin-1-yl]methyl}phenyl)imidazo[1,2-a]pyrimidine]: the IC50 in assay [1] is 1000 to 10000 nM; with OvCAR3 cells, over 1000 nM.

Take `Cc1cnc2nc(-c3ccc(CN4CCC(c5n[nH]c(-c6ccccn6)n5)CC4)cc3)c(-c3ccccc3)cn12` [Example 14, 3-methyl-6-phenyl-7-(4-{[4-(5-pyridin-2-yl-1,2,4-triazol-3-yl)piperidin-1-yl]methyl}phenyl)imidazo[1,2-a]pyrimidine]: the IC50 was 1000 to 10000 nM in assay [1] and under 1000 nM in the assay on OvCAR3 cells.

As to `CCc1cn2cc(-c3ccccc3)c(-c3ccc(CN4CCC(c5n[nH]c(-c6ccccn6)n5)CC4)cc3)nc2n1` [Example 17, 2-ethyl-6-phenyl-7-(4-{[4-(5-pyridin-2-yl-1,2,4-triazol-3-yl)piperidin-1-yl]methyl}phenyl)imidazo[1,2-a]pyrimidine], the IC50 is 1000 to 10000 nM in assay [1] and under 1000 nM with OvCAR3 cells.

For the compound `Brc1cnc2nc(-c3ccc(CN4CCC(c5n[nH]c(-c6ccccn6)n5)CC4)cc3)c(-c3ccccc3)cn12` [Example 11, 3-bromo-6-phenyl-7-(4-{[4-(5-pyridin-2-yl-1,2,4-triazol-3-yl)piperidin-1-yl]methyl}phenyl)imidazo[1,2-a]pyrimidine], the IC50 (in assay [1]; with OvCAR3 cells) was under 1000 nM throughout.

As to `c1ccc(-c2cn3ccnc3nc2-c2ccc(CN3CCC(c4cc(-c5ccccn5)n[nH]4)CC3)cc2)cc1` [Example 5, 6-phenyl-7-(4-{[4-(3-pyridin-2-yl-pyrazol-5-yl)piperidin-1-yl]methyl}phenyl)imidazo[1,2-a]pyrimidine], the IC50 in assay [1] was 1000 to 10000 nM; with OvCAR3 cells it was over 1000 nM.

For the compound `CNc1c(-c2ccccc2)c(-c2ccc(CN3CCC(c4n[nH]c(-c5ccccn5)n4)CC3)cc2)nc2nccn12` [Example 10, N-methyl-6-phenyl-7-(4-{[4-(5-pyridin-2-yl-1,2,4-triazol-3-yl)piperidin-1-yl]methyl}phenyl)imidazo[1,2-a]pyrimidin-5-amine], the IC50 in assay [1] is under 1000 nM; in the assay with OvCAR3 cells it was over 1000 nM.

On to `Clc1cnc2nc(-c3ccc(CN4CCC(c5n[nH]c(-c6ccccn6)n5)CC4)cc3)c(-c3ccccc3)cn12` [Example 12, 3-chloro-6-phenyl-7-(4-{[4-(5-pyridin-2-yl-1,2,4-triazol-3-yl)piperidin-1-yl]methyl}phenyl)imidazo[1,2-a]pyrimidine], for which the IC50 in assay [1] was 1000 to 10000 nM; in the assay on OvCAR3 cells, under 1000 nM.
